Assay results taken from US12428394B2, “2,4-disubstituted pyrimidine derivative, preparation method therefor and use thereof” (CHENGDU ZENITAR BIOMEDICAL TECHNOLOGY CO., LTD., priority 2019, dated 2025).

Legend:
[1] = target: T1, FLT3 (Homo sapiens, UniProt P36888); assay: In vitro kinase activity experiment, FLT3; type: biochemical; settings: 40 min; inhibition rate of enzyme at 500 nM; measured by Eurofins; read-out: Kinase activity @ 500 nM (%) FLT3
T1 construct: purchased Eurofins
T1 sequence (P36888 27-993): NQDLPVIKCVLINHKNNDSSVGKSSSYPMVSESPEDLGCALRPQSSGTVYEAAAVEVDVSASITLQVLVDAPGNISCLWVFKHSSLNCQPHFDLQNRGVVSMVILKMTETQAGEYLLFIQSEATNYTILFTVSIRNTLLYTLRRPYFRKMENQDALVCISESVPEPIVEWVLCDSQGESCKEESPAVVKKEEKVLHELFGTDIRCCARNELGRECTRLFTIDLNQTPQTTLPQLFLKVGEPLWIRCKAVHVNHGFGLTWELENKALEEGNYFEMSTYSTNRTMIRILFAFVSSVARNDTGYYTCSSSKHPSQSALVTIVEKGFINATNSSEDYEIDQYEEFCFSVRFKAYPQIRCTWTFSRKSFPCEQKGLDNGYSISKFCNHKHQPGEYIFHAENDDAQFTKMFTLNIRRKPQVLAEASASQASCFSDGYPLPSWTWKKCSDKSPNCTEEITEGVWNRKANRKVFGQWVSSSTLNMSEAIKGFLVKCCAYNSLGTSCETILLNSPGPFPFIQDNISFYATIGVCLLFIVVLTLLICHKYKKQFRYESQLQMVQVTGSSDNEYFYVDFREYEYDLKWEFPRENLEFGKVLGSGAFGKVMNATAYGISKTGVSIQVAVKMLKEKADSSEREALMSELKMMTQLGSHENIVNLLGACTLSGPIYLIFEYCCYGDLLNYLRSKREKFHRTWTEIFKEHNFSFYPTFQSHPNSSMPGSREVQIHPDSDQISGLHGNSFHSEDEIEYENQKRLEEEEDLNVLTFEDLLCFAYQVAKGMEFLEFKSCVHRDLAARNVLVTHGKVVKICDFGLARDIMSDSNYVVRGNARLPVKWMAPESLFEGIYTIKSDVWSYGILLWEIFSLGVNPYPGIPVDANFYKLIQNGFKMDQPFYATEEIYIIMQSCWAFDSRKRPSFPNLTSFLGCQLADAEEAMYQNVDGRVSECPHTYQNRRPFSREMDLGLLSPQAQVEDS
Description: (§1) Buffer solution ([…], pH 7.0, 0.2 mm EDTA, 10 mM mncl2), kinase to be tested, substrate of kinase to be tested, 10 mM magnesium acetate and γ33P-ATP solution, and compounds with different concentrations were added to a reaction tube in turn, then MgATP was added to initiate the enzyme reaction process, and incubated at room temperature for 40 min. Then, the reaction was terminated with 5 μl of […], and 10 μl of the reaction solution was titrated onto the Filtermat A membrane, washed with 75 mM phosphate solution for three times, each time for 5 min., and then washed with methanol once. Finally, the Filtermat A membrane was dried and the scintillation count was carried out.

[2] = tested on: MOLM-13 cells (FLT3-ITD-/+); assay: Inhibition of cell proliferation by MTT experiment, MOLM-13; type: cell-based, human; settings: Homo sapiens, MOLM-13; MTT, 72 h; read-out: IC50 value on cell proliferation inhibition, MOLM-13 FLT3-ITD-/+
Text: (§2) MV4-11, MOLM-13 and SET-2 were used to determine the influence of the test compound of the present invention on the activity of cancer cells. MV4-11 and MOLM-13 were human leukemia cell lines from American Type Culture Collection (ATCC), expressing FLT3 receptor and containing FLT3-ITD mutation; and SET-2 was a primary thrombocythemia cell purchased from Chengdu Bowerston Biotechnology Co., Ltd., China, continuously expressing JAK2 receptor and containing the mutation of V617F.
(§3) MV4-11, MOLM-13 and SET-2 cells were filled in a 96-well petri dish with 100 μL IMDM as the medium, containing 10% fetal bovine serum (100 mL/bottle, purchased from Grassland Lvye Bio-Engineering Materials Co., Ltd. and cryopreserved at −20° C.), and with 10,000-15,000 cells in each well. […] In each group, 3-5 replicate wells were set and incubated in 5% CO2 at 37° C. for 72 h. At the endpoint, 20 μL MTT (5 mg/mL) was added to each well, and the cells were incubated for another 1-3 h.
(§4) After the inhibition rate of each concentration of compound on cell proliferation activity was calculated, the dose-response curve and IC50 value were fitted by Graphpad prism software according to the compound treatment concentrations and corresponding inhibition rates.

[3] = tested on: SET-2 cells (JAK2 V617F); assay: Inhibition of cell proliferation by MTT experiment, SET-2; type: cell-based; settings: Homo sapiens, SET-2; MTT, 72 h; read-out: IC50 value on cell proliferation inhibition, SET-2 (V617F)
Text: as §2, §3, §4

[4] = target: T2, JAK2 (Homo sapiens, UniProt O60674); assay: In vitro kinase activity experiment, JAK2; type: biochemical; settings: inhibition rate of enzyme at 500 nM; measured by Eurofins
T2 construct: purchased Eurofins
Description: as §1

[5] = tested on: MV4-11 cells (FLT3-ITD+/+); assay: Inhibition of cell proliferation by MTT experiment, MV4-11; type: cell-based, human; settings: Homo sapiens, MV4-11; MTT, 72 h; read-out: IC50 value on cell proliferation inhibition, MV4-11 FLT3-ITD+/+
Text: as §2, §3, §4

T2 sequence (O60674 whole entry): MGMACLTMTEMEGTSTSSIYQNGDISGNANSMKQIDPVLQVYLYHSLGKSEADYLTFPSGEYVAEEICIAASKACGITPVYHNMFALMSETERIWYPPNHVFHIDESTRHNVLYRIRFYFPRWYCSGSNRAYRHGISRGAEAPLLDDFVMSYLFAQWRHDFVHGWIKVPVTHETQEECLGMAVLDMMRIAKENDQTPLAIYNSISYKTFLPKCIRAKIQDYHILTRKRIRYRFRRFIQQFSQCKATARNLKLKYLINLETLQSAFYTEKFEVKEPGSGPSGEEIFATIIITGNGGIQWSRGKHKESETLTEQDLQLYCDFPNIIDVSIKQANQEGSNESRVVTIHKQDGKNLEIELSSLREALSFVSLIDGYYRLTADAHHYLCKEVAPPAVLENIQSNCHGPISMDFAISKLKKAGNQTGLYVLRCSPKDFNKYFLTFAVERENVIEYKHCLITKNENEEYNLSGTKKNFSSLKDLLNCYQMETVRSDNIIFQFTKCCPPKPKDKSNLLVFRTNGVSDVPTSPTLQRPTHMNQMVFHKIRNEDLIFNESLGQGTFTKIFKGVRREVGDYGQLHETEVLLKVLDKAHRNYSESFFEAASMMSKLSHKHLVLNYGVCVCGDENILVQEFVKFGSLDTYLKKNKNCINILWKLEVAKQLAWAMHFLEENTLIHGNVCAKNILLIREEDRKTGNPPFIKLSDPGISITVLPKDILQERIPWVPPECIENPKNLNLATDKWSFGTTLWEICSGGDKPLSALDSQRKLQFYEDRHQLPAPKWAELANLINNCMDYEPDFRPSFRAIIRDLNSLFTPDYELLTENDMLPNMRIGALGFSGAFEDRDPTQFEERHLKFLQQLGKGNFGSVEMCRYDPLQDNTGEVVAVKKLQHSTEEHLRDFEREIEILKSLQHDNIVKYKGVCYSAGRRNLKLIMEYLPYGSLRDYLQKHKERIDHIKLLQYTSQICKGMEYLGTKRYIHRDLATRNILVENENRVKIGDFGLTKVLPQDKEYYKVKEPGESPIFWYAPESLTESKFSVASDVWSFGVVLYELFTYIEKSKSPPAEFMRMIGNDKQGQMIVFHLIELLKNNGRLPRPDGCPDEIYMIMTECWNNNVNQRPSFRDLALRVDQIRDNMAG

Row | SMILES | inhibition at 0.5 µM [1] | IC50 [2] | IC50 [3] | Kinase activity @ 500 nM (%) JAK2 [4] | IC50 [5]
1 | CC(C)n1cc(-c2nc(Nc3cccc(N4CCN(C)CC4)c3)ncc2F)cn1 [CLJ-19, 5-fluoro-N-(3-(4-methylpiperazine-1-yl)phenyl)-4-(1-isopropyl-1H-pyrazol-4-yl) pyrimidine-2-amine] | 95% | 100 to 1000 nM | 100 to 1000 nM | 92% | 10 to 100 nM
2 | CCCCN1CCN(c2ccc(Nc3ncc(F)c(-c4cnn(C(C)C)c4)n3)nc2)CC1 [CLJ-20, 5-fluoro-N-(5-(4-butylpiperazine-1-yl)pyridine-2-yl)-4-(1-isopropyl-1H-pyrazole-4-yl) pyrimidine-2-amine] | 95% | 100 to 1000 nM | 100 to 1000 nM | 97% | 100 to 1000 nM
3 | CCN1CCN(Cc2ccc(Nc3ncc(F)c(-c4cnn(C(C)C)c4)n3)nc2)CC1 [CLJ-21, 5-fluoro-N-(5-((4-ethylpiperazine-1-yl)methyl)pyridine-2-yl)-4-(1-isopropyl-1H-pyrazole-4-yl) pyrimidine-2-amine] | 75% | 100 to 1000 nM | 100 to 1000 nM | 89% | 100 to 1000 nM
4 | CC(C)n1cc(-c2nc(Nc3ccc(N4CCN(C)CC4)cc3)ncc2F)cn1 [CLJ-22, 5-fluoro-N-(4-(4-methylpiperazine-1-yl)phenyl)-4-(1-isopropyl-1H-pyrazol-4-yl) pyrimidine-2-amine] | 80% | 100 to 1000 nM | 100 to 1000 nM | 79% | 100 to 1000 nM
5 | CC(C)n1cc(-c2nc(Nc3ccc(N4CCN(C)CC4)cc3F)ncc2F)cn1 [CLJ-23, 5-fluoro-N-(2-fluoro-4-(4-methylpiperazine-1-yl)phenyl)-4-(1-isopropyl-1H-pyrazol-4-yl) pyrimidine-2-amine] | 40% | > 1000 nM | 100 to 1000 nM | 49% | 100 to 1000 nM
6 | CC(C)n1cc(-c2nc(Nc3ccc(N4CCN(C)CC4)c(F)c3)ncc2F)cn1 [CLJ-24, 5-fluoro-N-(3-fluoro-4-(4-methylpiperazine-1-yl)phenyl)-4-(1-isopropyl-1H-pyrazol-4-yl) pyrimidine-2-amine] | 32% | > 1000 nM | > 1000 nM | 28% | 100 to 1000 nM
7 | CCN1CCN(c2ccc(Nc3ncc(F)c(-c4cnn(C(C)C)c4)n3)cc2F)CC1 [CLJ-26, 5-fluoro-N-(3-fluoro-4-(4-ethylpiperazine-1-yl)phenyl)-4-(1-isopropyl-1H-pyrazole-4-yl) pyrimidine-2-amine] | 30% | > 1000 nM | > 1000 nM | 19% | > 1000 nM
8 | CC(C)n1cc(-c2nc(Nc3ccc(N4CCCC4)c(F)c3)ncc2F)cn1 [CLJ-27, 5-fluoro-N-(3-fluoro-4-(pyrrolidine-1-yl)phenyl)-4-(1-isopropylpyrazol-4-yl) pyrimidine-2-amine] | 24% | > 1000 nM | > 1000 nM | 34% | 100 to 1000 nM
9 | COc1cc(Nc2ncc(F)c(-c3cnn(C(C)C)c3)n2)ccc1N1CCN(C)CC1 [CLJ-28, 5-fluoro-N-(3-methoxy-4-(4-methylpiperazine-1-yl)phenyl)-4-(1-isopropyl-1H-pyrazol-4-yl) pyrimidine-2-amine] | 21% | > 1000 nM | > 1000 nM | 25% | > 1000 nM
10 | CCN1CCN(c2ccc(Nc3ncc(C)c(-c4cnn(C(C)C)c4)n3)cc2F)CC1 [CLJ-30] | 96% | 100 to 1000 nM | 100 to 1000 nM | 89% | 10 to 100 nM
11 | CC(C)n1cc(-c2nc(Nc3ccc(N4CCN(C5CCN(C)CC5)CC4)cc3)ncc2F)cn1 [CLJ-31, 5-fluoro-N-(4-(4-(1-methylpiperidine-4-yl)piperazine-1-yl)phenyl)-4-(1-isopropyl-1H-pyrazole-4-yl) pyrimidine-2-amine] | 18% | > 1000 nM | > 1000 nM | 25% | > 1000 nM
12 | CC(C)n1cc(-c2nc(Nc3ccc(N4CCN(C5CCN(C)CC5)CC4)c(F)c3)ncc2F)cn1 [CLJ-32, 5-fluoro-N-(3-fluoro-4-(4-(1-methylpiperidine-4-yl)piperazine-1-yl)phenyl)-4-(1-isopropyl-1H-pyrazole-4-yl) pyrimidine-2-amine] | 95% | 100 to 1000 nM | 100 to 1000 nM | 90% | 10 to 100 nM
13 | CC(C)n1cc(-c2nc(Nc3ccc(N4CCC(N5CCCCC5)CC4)c(F)c3)ncc2F)cn1 [CLJ-33] | 23% | > 1000 nM | > 1000 nM | 34% | > 1000 nM
14 | Cc1nn(C(C)C)cc1-c1nc(Nc2ccc(N3CCN(C)CC3)c(F)c2)ncc1F [CLJ-34] | 95% | 100 to 1000 nM | 100 to 1000 nM | 93% | 10 to 100 nM
15 | Cc1c(-c2nc(Nc3ccc(N4CCN(C)CC4)c(F)c3)ncc2F)cnn1C(C)C [CLJ-35] | 91% | 100 to 1000 nM | 100 to 1000 nM | 92% | 10 to 100 nM
16 | CC(C)n1cc(-c2nc(Nc3ccc(N4CCC(N(C)C)CC4)c(F)c3)ncc2F)cn1 [CLJ-36, 5-fluoro-N-(3-fluoro-4-(4-dimethylaminopiperidine-1-yl)phenyl)-4-(1-isopropyl-1H-pyrazole-4-yl) pyrimidine-2-amine] | 99% | 10 to 100 nM | 100 to 1000 nM | 97% | 10 to 100 nM
17 | COc1cc(Nc2ncc(F)c(-c3cnn(C(C)C)c3)n2)ccc1N1CCC(N(C)C)CC1 [CLJ-37, 5-fluoro-N-(3-methoxy-4-(4-dimethylaminopiperidine-1-yl)phenyl)-4-(1-isopropyl-1H-pyrazole-4-yl) pyrimidine-2-amine] | 97% | 100 to 1000 nM | 100 to 1000 nM | 98% | 10 to 100 nM
18 | COc1cc(Nc2ncc(C)c(-c3cnn(C(C)C)c3)n2)ccc1N1CCC(N(C)C)CC1 [CLJ-39, 5-methyl-N-(3-methoxy-4-(4-dimethylaminopiperidine-1-yl)phenyl)-4-(1-isopropyl-1H-pyrazole-4-yl) pyrimidine-2-amine] | 90% | 100 to 1000 nM | 100 to 1000 nM | 94% | 10 to 100 nM
